Assay results taken from patent US11584758B2, “RIP1K inhibitors” (Rigel Pharmaceuticals, Inc., priority 2020, dated 2023).

How the values were obtained:
[1] = Brain/plasma ratio from in vivo pharmacokinetic studies; conditions: rodent, brain and plasma; in vivo pharmacokinetic studies in rodents; read-out: B/P ratio (brain/plasma ratio)
Text: (§1) Certain embodiments of the invention provide for compound, compounds or compositions thereof to traverse the blood-brain barrier. […] Brain penetration may be assessed by evaluating brain/plasma ratio (B/P) as measured through in vivo pharmacokinetic studies in rodents and determining free fraction in rodent brain in vitro. […] Without being limited to theory, it is believed that compounds with higher brain/plasma partition ratios may be more pharmacologically active against neurological disorders. Other methods for assessing brain penetration are known to persons of ordinary skill in the art. See, for example, Liu, X. et al., J. Pharmacol. Exp. Therap., 325:349-56, 2008. […]. In this method, the passive membrane permeability (Papp) and the P-gp (P-glycoprotein) substrate efflux potential are determined using a MDCKII-MDR1 cell line as an in vitro model of the effective permeability of a compound through the BBB.

[2] = Brain free fraction in vitro; assay type: in vitro ADME; conditions: rodent brain in vitro
Text: as §1
Brain free fraction is a predictive marker for assessing potential for potential therapeutics in the CNS. See, Read K. D.; Braggio S. Assessing brain free fraction in early drug discovery. Expert. Opin. Drug. Metab. Toxicol. 2010, 6, 337-344.
Determination of brain free fraction is known such that those of skill in the art could determine the brain free fraction for additional compounds disclosed herein. See, Srinivas, Nithya et al. “Clinical Pharmacokinetics and Pharmacodynamics of Drugs in the Central Nervous System.” Clinical pharmacokinetics vol. 57, 9 (2018): 1059-1074. doi:10.1007/s40262-018-0632-y.

RIPK1 = RIPK1 (Homo sapiens (Human), UniProt Q13546); test: RIPK1 ADP-Glo kinase biochemical assay; conditions: statement in words
RIPK1, sequence (Q13546 whole entry, species assumed): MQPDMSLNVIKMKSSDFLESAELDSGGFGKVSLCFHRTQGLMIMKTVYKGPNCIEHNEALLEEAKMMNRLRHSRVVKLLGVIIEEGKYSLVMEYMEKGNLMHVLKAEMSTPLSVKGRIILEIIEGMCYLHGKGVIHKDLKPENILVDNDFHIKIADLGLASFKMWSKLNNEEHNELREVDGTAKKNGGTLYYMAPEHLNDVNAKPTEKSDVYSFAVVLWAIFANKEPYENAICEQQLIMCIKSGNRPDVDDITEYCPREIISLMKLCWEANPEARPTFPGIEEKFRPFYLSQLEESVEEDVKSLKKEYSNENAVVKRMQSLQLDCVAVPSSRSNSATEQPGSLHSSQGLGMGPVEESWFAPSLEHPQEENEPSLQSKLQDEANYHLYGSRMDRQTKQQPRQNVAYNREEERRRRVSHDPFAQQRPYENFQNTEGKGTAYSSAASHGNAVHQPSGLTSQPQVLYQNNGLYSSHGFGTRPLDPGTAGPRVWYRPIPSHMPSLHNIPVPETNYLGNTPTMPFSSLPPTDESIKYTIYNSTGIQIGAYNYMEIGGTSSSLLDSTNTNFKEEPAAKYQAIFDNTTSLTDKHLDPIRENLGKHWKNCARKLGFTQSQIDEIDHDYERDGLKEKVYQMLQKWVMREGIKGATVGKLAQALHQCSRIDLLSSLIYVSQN

SMILES | Kp [1] | fraction unbound [2] | RIP1K inhibitory activity (RIPK1)
CN1C(=O)[C@@H](NC(=O)c2cc(Oc3ccccc3)ccn2)COc2ccc(C#CC3COC3)nc21 [Compound I-44, (S)—N-(5-methyl-7-(oxetan-3-ylethynyl)-4-oxo-2,3,4,5-tetrahydropyrido[3,2-b][1,4]oxazepin-3-yl)-4-phenoxypicolinamide] | 1.6 | 0.017 | 
CN1C(=O)[C@@H](NC(=O)c2cc(Oc3ccccc3)ccn2)COc2cc(Br)cnc21 [Compound I-6, (S)—N-(8-Bromo-5-methyl-4-oxo-2,3,4,5-tetrahydropyrido[3,2-b][1,4]oxazepin-3-yl)-4-phenoxypicolinamide] |  |  | exhibiting RIP1K inhibitory activity
CN1C(=O)[C@@H](NC(=O)c2cc(Oc3ccccc3)ccn2)CCc2ccc(C#CC(C)(O)C(F)(F)F)nc21 (stereo partly drawn) [Compound I-56, N-((7S)-9-Methyl-8-oxo-2-(4,4,4-trifluoro-3-hydroxy-3-methylbut-1-yn-1-yl)-6,7,8,9-tetrahydro-5H-pyrido[2,3-b]azepin-7-yl)-4-phenoxypicolinamide] |  | 0.0093 | 
CN1C(=O)[C@@H](NC(=O)c2cc(Oc3ccccc3)ccn2)CCc2ccc(C#CC3COC3)nc21 [Compound I-58, (S)—N-(9-Methyl-2-(oxetan-3-ylethynyl)-8-oxo-6,7,8,9-tetrahydro-5H-pyrido[2,3-b]azepin-7-yl)-4-phenoxypicolinamide] | 0.44 | 0.0184 | 

Second part, the compound after the results:

Kp [1] | fraction unbound [2] | RIP1K inhibitory activity (RIPK1) | SMILES
 | 0.0219 |  | CN1C(=O)[C@@H](NC(=O)c2cc(Oc3cccc(F)c3)ccn2)COc2ccc(C#CC(C)(C)O)nc21 [Compound I-21, (S)-4-(3-fluorophenoxy)-N-(7-(3-hydroxy-3-methylbut-1-yn-1-yl)-5-methyl-4-oxo-2,3,4,5-tetrahydropyrido[3,2-b][1,4]oxazepin-3-yl)picolinamide]
 | 0.027 |  | CN1C(=O)[C@@H](NC(=O)c2cc(Oc3ccccc3)ccn2)COc2ccc(C#CC(C)(C)O)nc21 [Compound I-18, (S)—N-(7-(3-hydroxy-3-methylbut-1-yn-1-yl)-5-methyl-4-oxo-2,3,4,5-tetrahydropyrido[3,2b][1,4]oxazepin-3-yl)-4-phenoxypicolinamide]
 | 0.0089 |  | CN1C(=O)[C@@H](NC(=O)c2cc(Oc3ccccc3)ccn2)COc2ccc(C#CC(C)(N)C(F)(F)F)nc21 (stereo partly drawn) [Compound I-46, N-((3S)-7-(3-Amino-4,4,4-trifluoro-3-methylbut-1-yn-1-yl)-5-methyl-4-oxo-2,3,4,5-tetrahydropyrido[3,2-b][1,4]oxazepin-3-yl)-4-phenoxypicolinamide]
 | 0.0057 |  | CN1C(=O)[C@@H](NC(=O)c2cc(Oc3ccccc3)ccn2)COc2ccc(C#CC(O)C(F)(F)F)nc21 (stereo partly drawn) [Compound I-33, N-((3S)-5-methyl-4-oxo-7-(4,4,4-trifluoro-3-hydroxybut-1-yn-1-yl)-2,3,4,5-tetrahydropyrido[3,2-b][1,4]oxazepin-3-yl)-4-phenoxypicolinamide]
